Experimental data from patent publication US20250152557A1, “METHODS FOR TREATING SUBJECTS WITH ABDOMINAL OBESITY […] AND/OR IMPAIRED GLUCOSE” (NOVO NORDISK A/S, priority 2022, published 2025).

Columns and labels:
[1] = tested on: subjects with metabolic syndrome; experiment: Phase 1b study, pharmacodynamic effects of INV-202 over 28 days (weight, waist, lipids, glucose, endocrine and renal markers); format: in vivo, human
Experimental: A phase 1b study to examine the pharmacokinetic and pharmacodynamic effects of INV-202 in subjects with metabolic syndrome as defined by hypertriglyceridemia, abdominal obesity, and impaired glucose tolerance over 28 days was performed.
This is single center, Phase 1B, randomized, double-blind, placebo-controlled, 28-day repeat dose study.
The study includes subjects with evidence of metabolic syndrome and glucose intolerance that are randomized 1:1 to receive either INV-202 or placebo. 20 subjects will receive 25 mg of INV-202 and 20 subjects will receive a matching placebo daily for 28 consecutive days, for a total of 40 subjects.
Subjects will receive a daily oral dose of INV-202 25 mg or a matching placebo for 28 consecutive days.
Body measurements performed at screening will include height and weight measurements, waist circumference, as well as BMI calculation. Height will only be measured at screening. Weight and waist circumference will also be measured pre-dose on Days 1, 8, 15, and 22, and on Day 29 (+2 days). BMI will be calculated as needed.
Weight and waist circumference will be measured in triplicate using a standard measuring method. The same scale should be used at all visits for a given subject. The scale should be calibrated according to the manufacturer's recommendation. A medical grade scale for weight should be used.
(§1) The following will be assessed: sodium, potassium, chloride, glucose, blood urea nitrogen, creatinine, creatinine clearance, direct bilirubin, indirect bilirubin, bilirubin total, ALP, AST, ALT, albumin, lactate dehydrogenase, calcium, lipase, amylase, phosphorus, HbA1C, serum ferritin and total protein.
In addition, a lipid profile will also be assessed: total cholesterol, HDL, LDL, VLDL and triglycerides. […]
The following will be assessed only pre-dose on Days 1, 8, 15, and 22, on Day 29 (+2 days), and at the FU Visit/EOS/ET on Day 35 (+2 days): C-peptide, insulin, TSH, and T4.
The OGTT will be performed at screening, on Day −1, and on Day 29 (+2 days). The OGTT will not need to be performed at screening if there is evidence of HbA1C≥5.7% but ≤6.4% obtained within the last 3 months.
For the OGTT performed on Day 29 (+2 days), a 75 g glucose load will be administered with blood draws at 30 minutes, 1 hour, 2 hours and 3 hours post-intake.
The following PD parameters will be evaluated: • 1) 0-3 hour AUC blood glucose level during OGTT • 2) Plasma insulin level—change from baseline to EOS/ET • 3) C-peptide level—change from baseline to EOS/ET • 4) Plasma lipid profile (HDL, LDL, VLDL, triglycerides)—change from baseline to EOS/ET • 5) Adiponectin and leptin—change from baseline to EOS/ET • 6) hs-CRP—change from baseline to EOS/ET • 7) Weight—change from baseline to EOS/ET • 8) Waist circumference—change from baseline to EOT/ET • 9) Appetite and Food Intake questionnaire score—change from baseline to EOT/ET • 10) Urine albumin to creatinine ratio—change from baseline to EOS/ET
All PD analyses will be descriptive only and no formal statistical analysis is planned. Descriptive statistics will be used to describe change from baseline in values including glucose AUC during OGTT, fasting insulin level and C-peptide levels, lipids (e.g., triglycerides, HDL), adiponectin and other biomarkers. Exploratory analysis in PD versus AEs may be performed to evaluate the Exposure-Response.

[2] = tested on: subjects with metabolic syndrome; experiment: Phase 1b study, Columbia Suicidality Severity Rating Scale (C-SSRS); format: in vivo, human; conditions: INV-202 group, EOT; 25 mg oral daily for 28 days
Description: A suicide risk assessment will be performed using the C-SSRS questionnaire at screening, Day −1 (if more than 21 days have passed since the screening C-SSRS), Day 29 (+2 days) and at the FU Visit/EOS/ET on Day 35 (+2 days).
This scale will be administered by a member of the medical team, completed on site, and will be on paper. The “Lifetime” C-SSRS questionnaire template will be used at the screening visit and on Day −1 (if applicable), and the “since last visit” C-SSRS questionnaire template will be used on Day 29 (+2 days) and at the FU Visit/EOS/ET. If the Investigator determines that a subject is at risk of suicide or self-harm, he/she must immediately be discontinued from the study and appropriate measures to ensure the subject's safety and obtain mental health evaluation must be implemented. The event should be recorded as either an AE or a SAE, as determined by the Investigator, and reported within 24 hours to the Sponsor.

DIO mouse model = experiment: Effect on body weight and metabolic parameters in DIO mouse model; format: in vivo
Description: The effect of INV-202 on body weight and food consumption was studied in a DIO mouse model.

[3] = tested on: subjects with metabolic syndrome; experiment: Phase 1b study, vital signs; format: in vivo, human; conditions: 25 mg oral daily for 28 days
Description: BP, HR, RR and OT will be measured at screening and pre-dose on Days 1, 8, 15, and 22, on Day 29 (+2 days), and at the FU Visit/EOS/ET on Day 35 (+2 days). Vital signs will be measured in a sitting position (except for safety reasons and when ECG are planned around the same time). When vital signs measurements coincide with a blood draw, they should preferably be performed before the blood collection, whenever possible.

[4] = tested on: subjects with metabolic syndrome; experiment: Phase 1b study, liver safety (liver chemistry); format: in vivo, human
Description: as §1
The hepatic safety of all randomized subjects will be assessed through the use of the following algorithm based on FDA DILI management guidelines (Center for Drug Evaluation and Research (CDER), FDA. Guidance for Industry: Drug-Induced Liver Injury: Premarketing Clinical Evaluation. July 2009).
An increase of serum ALT or AST>3×ULN should be followed by repeat testing within 48 to 72 hours of all four of the usual serum measures (ALT, AST, ALP, and TBL) to confirm the abnormalities and to determine if they are increasing or decreasing. There also should be inquiry made about symptoms.

[5] = background statement, cited from earlier work
[6] = 25 mg oral daily for 28 days, SD in next cell
[7] = 25 mg oral daily for 28 days, Table 3, SD in next cell
[8] = 25 mg oral daily for 28 days, endocrine lab data, Table 3
[9] = following 28-days of repeat dosing

SMILES: CC(=O)N/C(N)=N/C(=N\S(=O)(=O)c1ccc(C(F)(F)F)cc1)N1C[C@H](c2ccccc2)C(c2ccc(Cl)cc2)=N1 [INV-202, N-{[(S)-{[3-(4-chlorophenyl)-4-phenyl-4,5-dihydro-1H-pyrazol-1-yl][4-(trifluoromethyl)benzenesulfonamido]methylidene}amino]methanimidoyl}acetamide]
- BMI, change from baseline ([1]; 25 mg oral daily for 28 days): −1.20 kg/m^2
- HDL (%), change from baseline ([1]; 25 mg oral daily for 28 days): 0.13%
- Triglycerides (%), change from baseline ([1]; 25 mg oral daily for 28 days): −7.9%
- OGTT (0-3 hour AUC blood glucose), change from baseline ([1]; 25 mg oral daily for 28 days, 75 g glucose load, SD in next cell): 2.24 mmol·h/L
- C-peptide, change from baseline [1, 6]: 0.036 nmol/L
- HDL, change from baseline [1, 6]: 0.0015 mmol/L
- HgbA1C, change from baseline [1, 6]: −0.005%
- Insulin, change from baseline [1, 6]: -5.0 pmol/L
- LDL, change from baseline [1, 6]: -0.50 mmol/L
- Total Chol., change from baseline [1, 6]: -0.56 mmol/L
- Triglycerides, change from baseline [1, 6]: -0.179 mmol/L
- VLDL, change from baseline [1, 6]: -0.08 mmol/L
- Waist, change from baseline [1, 6]: −1.91 cm
- Weight (%), change from baseline [1, 6]: −3.33%
- Weight, change from baseline [1, 6]: -3.50 kg
- hs-CRP, change from baseline [1, 6]: -1.6 mg/L
- Leptin (%) ([1]; 25 mg oral daily for 28 days, Table 3): −18%
- Adiponectin [1, 7]: 0.15 mg/L
- Leptin [1, 7]: -2.64 µg/L
- T4 [1, 8]: 0.516 pmol/L
- TSH [1, 8]: −0.014 mIU/L
- eGFR (CKD-EPI 2021) ([1]; 25 mg oral daily for 28 days, renal lab data, Table 3): 3.23 mL/min/1.73 m2
- maximum weight loss by percentage ([1]; after 28 days of treatment, individual patient maximum): 6%
- lowest weight loss by percentage ([1]; after 28 days of treatment, individual patient minimum): 0.1%
- average weight loss at first clinic visit ([1]; day 8, statistically significant): 1.4%
- weight change of individual patients ([1]; every single patient on INV-202): lost weight
- C-SSRS: Non-specific active suicidal thoughts [2]: 0
- C-SSRS: Suicidal behaviour [2]: 0
- C-SSRS: Wished to be dead [2]: 0
- C-peptide levels (DIO mouse model): significant effects in reducing C-peptide levels
- glucose AUC in an OGTT test (DIO mouse model): decreased glucose AUC
- insulin levels (DIO mouse model): significant effects in reducing
- ALT (DIO mouse model; [9]): significantly decreased ALT
- liver triglyceride (DIO mouse model; [9]): significantly decreased
- body weight (DIO mouse model; following 10 days of dosing): dose dependently reduce body weight
- Diastolic Blood Pressure (DBP), change from baseline [3]: −0.25 mmHg
- Heart Rate, change from baseline [3]: 2.3 bpm
- Systolic Blood Pressure (SBP), change from baseline [3]: −4.65 mmHg
- Temp, change from baseline [3]: −0.045 °C
- liver chemistry ([4]; all patients throughout the study): within normal limits
- changes for bilirubin (total, direct, indirect) or transaminases (AST and ALT) ([4]; throughout the study): no significant changes

SMILES: Cc1c(C(=O)NN2CCCCC2)nn(-c2ccc(Cl)cc2Cl)c1-c1ccc(Cl)cc1 [Rimonabant]
- efficacy in metabolic syndrome [5]: effective in treating metabolic syndrome
- side effects ([5]; resulted in withdrawal from the market): caused neuropsychiatric (i.e. CNS-related) side effects
